Test results published in ChEMBL document CHEMBL4673377 (Bioorg Med Chem Lett, 2021).
Calls of active or inactive are those of the source. The calls are words filed in the database; no cut-off is given here.

Columns and labels:
[1] = in vivo; details: mouse, brain/plasma, po, 10 mg/kg
Description: Ratio of drug level in brain to plasma of mouse at 10 mg/kg, po after 1 hr

[2] = molecular target: Kynurenine 3-monooxygenase (Mus musculus, UniProt Q91WN4)
Description: Inhibition of mouse liver mitochondrial KMO by measuring the 3-HK metabolite formation using L-kynurenine as substrate preincubated for 5 mins followed by substate addition and measured after 30 mins by LC-MS/MS analysis

[3] = Drug uptake in mouse brain at 10 mg/kg, po after 1 hr; assay type: ADME, organism-based; details: read-out: Drug uptake
[4] = Permeability of compound at pH 7.4 by PAMPA assay; assay type: ADME; details: read-out: permeability
[5] = Plasma concentration in mouse at 10 mg/kg, po after 1 hr; assay type: ADME, organism-based
[6] = tested on: Mus musculus; test: In vivo inhibition of KMO in R6/2 mouse model of HD assessed as decrease in 3-HK level in striatum at 100 mg/kg, po administered twice daily for 7 weeks starting from 5 weeks age; assay type: functional, organism-based
[7] = tested on: Mus musculus; test: Cognitive enhancing effect in R6/2 mouse model of HD assessed as increase in spontaneous alteration at 100 mg/kg, po administered twice daily for 12 weeks starting from 5 weeks of age by Y-maze test; assay type: functional, organism-based
[8] = tested on: Mus musculus; test: Effect on R6/2 mouse model of HD assessed as increase in latency to fall at 100 mg/kg, po administered twice daily for 11 weeks age starting from 5 weeks of age by rotarod test; assay type: functional, organism-based
[9] = molecular target: Kynurenine 3-monooxygenase (Mus musculus) (UniProt Q91WN4); test: Inhibition of mouse liver mitochondrial KMO by measuring the 3-HK metabolite formation at 100 nM using L-kynurenine as substrate preincubated for 5 mins followed by substate addition and measured after 30 mins by LC-MS/MS analysis relative to control; details: Mitochondria, time 35.0 min
[10] = molecular target: T1, Kynurenine 3-monooxygenase (Homo sapiens, UniProt O15229); test: Inhibition of human liver mitochondrial KMO at by measuring the 3-HK metabolite formation at 100 nM using L-kynurenine as substrate preincubated for 5 mins followed by substate addition and measured after 30 mins by LC-MS/MS analysis relative to control; details: Mitochondria, time 35.0 min
Target sequence in this assay (O15229 whole entry, looked up): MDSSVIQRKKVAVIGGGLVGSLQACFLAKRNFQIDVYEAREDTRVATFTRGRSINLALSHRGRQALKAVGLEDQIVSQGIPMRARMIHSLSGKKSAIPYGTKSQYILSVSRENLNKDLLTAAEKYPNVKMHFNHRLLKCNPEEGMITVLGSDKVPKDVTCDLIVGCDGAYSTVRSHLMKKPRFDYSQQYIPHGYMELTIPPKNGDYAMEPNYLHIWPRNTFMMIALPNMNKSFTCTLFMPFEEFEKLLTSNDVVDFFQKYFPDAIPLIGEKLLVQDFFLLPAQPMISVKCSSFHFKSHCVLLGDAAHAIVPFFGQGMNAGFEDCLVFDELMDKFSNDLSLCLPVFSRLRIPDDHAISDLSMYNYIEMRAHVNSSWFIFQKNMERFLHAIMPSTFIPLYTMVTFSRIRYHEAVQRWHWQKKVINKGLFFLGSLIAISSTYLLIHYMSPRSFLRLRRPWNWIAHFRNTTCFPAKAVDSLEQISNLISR

[11] = molecular target: T1, Kynurenine 3-monooxygenase
Target sequence in this assay (O15229 whole entry): as the sequence (O15229 whole entry, looked up) above
Description: Inhibition of KMO (unknown origin)

Sequence of Kynurenine 3-monooxygenase (Mus musculus, UniProt Q91WN4) (Q91WN4 whole entry): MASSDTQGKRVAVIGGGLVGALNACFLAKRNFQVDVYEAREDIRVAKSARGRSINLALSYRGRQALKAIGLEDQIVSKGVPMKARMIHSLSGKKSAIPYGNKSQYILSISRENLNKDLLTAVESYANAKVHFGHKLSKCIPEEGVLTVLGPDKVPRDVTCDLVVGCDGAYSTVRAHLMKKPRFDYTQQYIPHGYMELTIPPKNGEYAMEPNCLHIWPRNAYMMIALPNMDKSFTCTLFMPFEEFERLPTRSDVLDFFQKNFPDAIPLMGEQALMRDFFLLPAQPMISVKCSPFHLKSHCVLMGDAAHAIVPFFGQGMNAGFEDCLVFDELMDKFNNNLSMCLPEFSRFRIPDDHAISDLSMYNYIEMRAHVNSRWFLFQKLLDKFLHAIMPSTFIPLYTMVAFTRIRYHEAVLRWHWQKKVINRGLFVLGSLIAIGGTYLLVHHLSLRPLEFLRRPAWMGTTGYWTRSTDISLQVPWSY
Sequence of Kynurenine 3-monooxygenase (Mus musculus) (Q91WN4 whole entry, looked up): as the sequence (Q91WN4 whole entry) above

| Structure (SMILES) | Kp at 1 h [1] | IC50 [2] | concentration at 1 h [3] | Papp [4] | concentration at 1 h [5] | also measured |
| --- | --- | --- | --- | --- | --- | --- |
| CN(C)c1cccc(S(=O)(=O)Nc2ccc(-c3ccccc3N3CCCC3)nn2)c1 | 0.162 | 0.0033 µM | 137 ng/g | 31.2 ×10⁻⁶ cm/s | 879 ng/mL |  |
| O=C(O)c1cc(-c2ccc(Cl)c(OC3CC3)c2)ncn1 | 0.004 | 0.0087 µM | 177 ng/g | 6.5 ×10⁻⁶ cm/s | 49100 ng/mL |  |
| O=S(=O)(Nc1ccc(-c2cccc(Cl)c2)nn1)c1ccccn1 |  |  |  |  |  | inhibition [9]: 16% |
| Cc1ccc(S(=O)(=O)Nc2ccc(-c3cccc4cccnc34)nn2)cc1 | 0.104 | 0.0087 µM | 2910 ng/g | 44.1 ×10⁻⁶ cm/s | 27900 ng/mL | inhibition [10]: 36% |
| O=S(=O)(Nc1ccc(-c2cccc(Cl)c2)nn1)c1cccnc1 |  |  |  |  |  | inhibition [9]: 31% |
| Cc1ccc(S(=O)(=O)Nc2ccc(-c3ccccc3N(C)C)nn2)cc1 | 0.136 | 0.0045 µM | 25 ng/g | 35.7 ×10⁻⁶ cm/s | 185 ng/mL |  |
| Cc1ccc(S(=O)(=O)Nc2ccc(-c3cccc4ccn(C)c34)nn2)cc1 |  | 0.0291 µM |  | 49.2 ×10⁻⁶ cm/s |  |  |
| COc1ccccc1-c1ccc(NS(=O)(=O)c2ccc(C)cc2)nn1 | 0.052 | 0.0365 µM | 131 ng/g | 34.7 ×10⁻⁶ cm/s | 2520 ng/mL |  |
| Cc1cccc(S(=O)(=O)Nc2ccc(-c3cccc(Cl)c3)nn2)c1 |  | 0.101 µM |  | 40.2 ×10⁻⁶ cm/s |  |  |
| O=C(O)C1CC1C(=O)c1ccc(Cl)c(Cl)c1 (centres undefined) |  |  |  |  |  | IC50 [11]: 0.04 µM |
| CN(C)c1ccc(S(=O)(=O)Nc2ccc(-c3cccc(Cl)c3)nn2)cc1 |  | 0.402 µM |  |  |  |  |
| CCc1ccccc1-c1ccc(NS(=O)(=O)c2ccc(C)cc2)nn1 |  | 0.0292 µM |  |  |  |  |

The next lines start with results.

| Kp at 1 h [1] | IC50 [2] | concentration at 1 h [3] | Papp [4] | concentration at 1 h [5] | Structure (SMILES) | also measured |
| --- | --- | --- | --- | --- | --- | --- |
|  | 0.0472 µM |  | 22.4 ×10⁻⁶ cm/s |  | Cc1ccc(S(=O)(=O)Nc2ccc(-c3cccc4ccncc34)nn2)cc1 |  |
|  | > 0.1 µM |  |  |  | Cc1ccc(S(=O)(=O)Nc2ccc(-c3ccccc3N3CCN(C)CC3)nn2)cc1 |  |
|  | 0.118 µM |  | 35.7 ×10⁻⁶ cm/s |  | CN(C)c1ccccc1S(=O)(=O)Nc1ccc(-c2cccc(Cl)c2)nn1 |  |
| 0.282 |  | 230 ng/g | 50.6 ×10⁻⁶ cm/s | 808 ng/mL | Cc1ccc(S(=O)(=O)Nc2ccc(-c3ccccc3N3CCCCC3)nn2)cc1 | Activity [6]: Active; Activity [7]: Active; Activity [8]: Active |
| 0.076 | 0.0039 µM | 69 ng/g | 44.3 ×10⁻⁶ cm/s | 931 ng/mL | Cc1ccc(S(=O)(=O)Nc2ccc(-c3ccccc3N3CCOCC3)nn2)cc1 |  |
|  | 0.0169 µM |  | 38.5 ×10⁻⁶ cm/s |  | Cc1ccc(S(=O)(=O)Nc2ccc(-c3cccc4c3N(C)CC4)nn2)cc1 |  |
| 0.235 | 0.0017 µM | 51 ng/g | 43.5 ×10⁻⁶ cm/s | 215 ng/mL | Cc1ccc(S(=O)(=O)Nc2ccc(-c3ccccc3N3CCCC3)nn2)cc1 |  |
|  | 0.546 µM |  |  |  | Cc1ccc(S(=O)(=O)Nc2ccc(-c3ccc(N(C)C)cc3)nn2)cc1 |  |
|  | 0.0317 µM |  | 42.5 ×10⁻⁶ cm/s |  | CN(C)c1cccc(S(=O)(=O)Nc2ccc(-c3cccc(Cl)c3)nn2)c1 |  |
|  | 0.0825 µM |  | 32.4 ×10⁻⁶ cm/s |  | Cc1ccc(S(=O)(=O)Nc2ccc(-c3cccc(N(C)C)c3)nn2)cc1 |  |
